In series [1] the target is Voltage-gated inwardly rectifying potassium channel KCNH2 (Homo sapiens, UniProt Q12809). The series is described as follows: Binding affinity to human ERG at 30 uM.
Series [2] addresses T1, Cytochrome P450 1A2 (Homo sapiens, UniProt P05177).
T1 sequence (P05177 whole entry): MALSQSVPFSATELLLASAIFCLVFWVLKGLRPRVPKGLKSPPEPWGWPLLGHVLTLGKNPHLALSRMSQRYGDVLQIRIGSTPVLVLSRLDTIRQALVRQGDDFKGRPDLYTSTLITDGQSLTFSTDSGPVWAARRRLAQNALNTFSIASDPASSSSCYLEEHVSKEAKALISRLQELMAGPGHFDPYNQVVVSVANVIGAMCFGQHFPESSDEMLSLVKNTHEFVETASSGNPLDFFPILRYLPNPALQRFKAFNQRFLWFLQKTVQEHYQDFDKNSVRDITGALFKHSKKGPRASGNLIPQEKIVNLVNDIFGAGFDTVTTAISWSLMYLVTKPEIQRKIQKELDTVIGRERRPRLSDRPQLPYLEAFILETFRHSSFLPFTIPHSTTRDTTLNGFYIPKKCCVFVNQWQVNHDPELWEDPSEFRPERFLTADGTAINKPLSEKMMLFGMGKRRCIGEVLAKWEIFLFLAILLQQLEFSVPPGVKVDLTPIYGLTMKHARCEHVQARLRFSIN
Kind of series: Inhibition of CYP1A2 (unknown origin) up to 25 uM. It is filed as ADME.

Series [3] can be described thus: in vitro. To be noted: rat, liver microsomes. Background: Microsomes from liver hold many membrane-bound enzymes, among them those of drug oxidation.
Description: Apparent intrinsic clearance in rat liver microsomes
Series [4] deals with Cytochrome P450 2D6 (Homo sapiens, UniProt P10635). The series is described as follows: Inhibition of CYP2D6 (unknown origin) up to 25 uM. It is filed as ADME.
A short description of series [5]: in vitro. To be noted: rat, hepatocytes.
Description: Apparent intrinsic clearance in rat hepatocytes
Series [6] concerns the target Non-receptor tyrosine-protein kinase TYK2 (Homo sapiens, UniProt P29597).
The nature of series [7]: Drug absorption in rat at […], po. To be noted: in vivo, read-out: Fabs. Type of series: ADME, organism-based.
Series [8] is described as follows: physchem. The settings on record: octanol/water.
Description: Lipophilicity, logD of the compound by shake flask assay
Series [9] addresses Cytochrome P450 3A4 (Homo sapiens, UniProt P08684). Kind of series: Inhibition of CYP3A4 (unknown origin) up to 25 uM. Type of series: ADME.
For series [10], the target named is Cytochrome P450 2C19 (Homo sapiens, UniProt P33261). The series is described as follows: Inhibition of CYP2C19 (unknown origin) up to 25 uM. It is filed as ADME.
A short description of series [11]: Terminal Phase volume of distribution […] in rat at […], po or 0.06 mg/kg, iv. It is filed as ADME, organism-based. The settings on record: in vivo, read-out: Vbeta.
A short description of series [12]: physchem. The settings on record: PBS buffer, pH 7.4.
Description: Aqueous solubility in PBS buffer at pH 7.4 by HPLC analysis
The target of series [13] is T2, Tyrosine-protein kinase JAK2 (Homo sapiens, UniProt O60674).
T2 sequence (O60674 whole entry, the tested form may be a part): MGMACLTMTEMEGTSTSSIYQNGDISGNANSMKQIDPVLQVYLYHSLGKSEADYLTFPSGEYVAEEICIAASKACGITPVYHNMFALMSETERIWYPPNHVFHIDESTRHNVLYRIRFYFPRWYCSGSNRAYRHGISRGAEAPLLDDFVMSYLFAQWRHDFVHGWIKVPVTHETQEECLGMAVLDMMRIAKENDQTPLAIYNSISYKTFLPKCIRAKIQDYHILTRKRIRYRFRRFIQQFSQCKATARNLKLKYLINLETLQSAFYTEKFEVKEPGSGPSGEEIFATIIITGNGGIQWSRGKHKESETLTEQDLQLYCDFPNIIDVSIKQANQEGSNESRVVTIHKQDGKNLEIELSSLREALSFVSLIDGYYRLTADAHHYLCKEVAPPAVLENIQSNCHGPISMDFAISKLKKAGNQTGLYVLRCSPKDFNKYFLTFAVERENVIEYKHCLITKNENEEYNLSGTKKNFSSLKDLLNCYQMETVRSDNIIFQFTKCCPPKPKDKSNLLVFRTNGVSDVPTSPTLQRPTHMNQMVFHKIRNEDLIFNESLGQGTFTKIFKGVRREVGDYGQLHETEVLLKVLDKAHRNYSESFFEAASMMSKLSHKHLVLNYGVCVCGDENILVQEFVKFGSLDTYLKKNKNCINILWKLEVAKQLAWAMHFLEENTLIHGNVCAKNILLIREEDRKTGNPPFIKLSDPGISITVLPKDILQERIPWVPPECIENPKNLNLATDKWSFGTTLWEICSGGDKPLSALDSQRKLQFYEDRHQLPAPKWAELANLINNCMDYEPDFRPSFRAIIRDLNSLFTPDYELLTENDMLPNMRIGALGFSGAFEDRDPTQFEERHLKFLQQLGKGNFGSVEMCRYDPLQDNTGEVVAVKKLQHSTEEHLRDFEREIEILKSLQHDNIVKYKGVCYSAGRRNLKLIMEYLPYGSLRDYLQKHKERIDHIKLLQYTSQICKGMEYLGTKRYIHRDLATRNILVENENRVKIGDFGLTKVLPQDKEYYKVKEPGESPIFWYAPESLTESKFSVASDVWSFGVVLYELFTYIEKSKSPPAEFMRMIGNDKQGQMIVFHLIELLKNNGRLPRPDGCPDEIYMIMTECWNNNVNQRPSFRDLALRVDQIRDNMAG
The target in series [14] is Fibroblast growth factor receptor 1 (Homo sapiens) (UniProt P11362). The series is described as follows: Inhibition of human FGFR1 cytoplasmic domain (398 to 822(end) residues) at 1 mM ATP relative to control.
Fibroblast growth factor receptor 1 (Homo sapiens), sequence (P11362 22-822 limits assumed): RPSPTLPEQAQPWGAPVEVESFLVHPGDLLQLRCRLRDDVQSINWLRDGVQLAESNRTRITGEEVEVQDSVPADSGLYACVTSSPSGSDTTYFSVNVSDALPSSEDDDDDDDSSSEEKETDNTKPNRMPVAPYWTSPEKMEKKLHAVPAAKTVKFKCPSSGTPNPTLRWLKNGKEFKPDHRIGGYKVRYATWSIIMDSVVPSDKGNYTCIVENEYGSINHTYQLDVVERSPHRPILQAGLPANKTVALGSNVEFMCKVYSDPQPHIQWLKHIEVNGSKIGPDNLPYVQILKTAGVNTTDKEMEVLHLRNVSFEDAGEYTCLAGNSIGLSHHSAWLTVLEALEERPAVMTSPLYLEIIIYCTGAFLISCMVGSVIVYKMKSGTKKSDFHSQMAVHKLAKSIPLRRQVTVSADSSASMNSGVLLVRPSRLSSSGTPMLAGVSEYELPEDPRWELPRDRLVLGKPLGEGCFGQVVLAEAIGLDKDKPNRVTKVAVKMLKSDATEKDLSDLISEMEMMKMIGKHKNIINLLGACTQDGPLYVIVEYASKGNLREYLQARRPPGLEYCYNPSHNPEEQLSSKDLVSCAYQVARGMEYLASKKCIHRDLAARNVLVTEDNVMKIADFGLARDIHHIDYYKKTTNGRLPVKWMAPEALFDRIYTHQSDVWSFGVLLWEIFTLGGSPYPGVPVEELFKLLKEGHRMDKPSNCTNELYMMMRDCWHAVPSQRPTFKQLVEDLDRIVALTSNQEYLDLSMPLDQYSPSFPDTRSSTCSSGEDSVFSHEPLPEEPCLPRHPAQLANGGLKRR
Series [15] is described as follows: Apparent permeability in human Caco2 cells. It is filed as ADME, cell-based. The settings on record: Caco-2. Background: Passage across Caco-2 layers is used to estimate intestinal permeability.
The nature of series [16]: in vitro. To be noted: human, liver microsomes.
Description: Apparent intrinsic clearance in human liver microsomes
Series [17] addresses T2, Tyrosine-protein kinase JAK2. This is another data set of the same source.
Description: Inhibition of JAK2 in human STAT5-irf1-bla TF1 cells assessed as reduction in EPO-induced STAT5-signalling pre-incubated for 1 hrs before EPO addition and further incubated for 4 hrs fluorescence based assay
For series [18], the target named is T3, Tyrosine-protein kinase JAK3 (Homo sapiens, UniProt P52333).
T3 sequence (P52333 whole entry): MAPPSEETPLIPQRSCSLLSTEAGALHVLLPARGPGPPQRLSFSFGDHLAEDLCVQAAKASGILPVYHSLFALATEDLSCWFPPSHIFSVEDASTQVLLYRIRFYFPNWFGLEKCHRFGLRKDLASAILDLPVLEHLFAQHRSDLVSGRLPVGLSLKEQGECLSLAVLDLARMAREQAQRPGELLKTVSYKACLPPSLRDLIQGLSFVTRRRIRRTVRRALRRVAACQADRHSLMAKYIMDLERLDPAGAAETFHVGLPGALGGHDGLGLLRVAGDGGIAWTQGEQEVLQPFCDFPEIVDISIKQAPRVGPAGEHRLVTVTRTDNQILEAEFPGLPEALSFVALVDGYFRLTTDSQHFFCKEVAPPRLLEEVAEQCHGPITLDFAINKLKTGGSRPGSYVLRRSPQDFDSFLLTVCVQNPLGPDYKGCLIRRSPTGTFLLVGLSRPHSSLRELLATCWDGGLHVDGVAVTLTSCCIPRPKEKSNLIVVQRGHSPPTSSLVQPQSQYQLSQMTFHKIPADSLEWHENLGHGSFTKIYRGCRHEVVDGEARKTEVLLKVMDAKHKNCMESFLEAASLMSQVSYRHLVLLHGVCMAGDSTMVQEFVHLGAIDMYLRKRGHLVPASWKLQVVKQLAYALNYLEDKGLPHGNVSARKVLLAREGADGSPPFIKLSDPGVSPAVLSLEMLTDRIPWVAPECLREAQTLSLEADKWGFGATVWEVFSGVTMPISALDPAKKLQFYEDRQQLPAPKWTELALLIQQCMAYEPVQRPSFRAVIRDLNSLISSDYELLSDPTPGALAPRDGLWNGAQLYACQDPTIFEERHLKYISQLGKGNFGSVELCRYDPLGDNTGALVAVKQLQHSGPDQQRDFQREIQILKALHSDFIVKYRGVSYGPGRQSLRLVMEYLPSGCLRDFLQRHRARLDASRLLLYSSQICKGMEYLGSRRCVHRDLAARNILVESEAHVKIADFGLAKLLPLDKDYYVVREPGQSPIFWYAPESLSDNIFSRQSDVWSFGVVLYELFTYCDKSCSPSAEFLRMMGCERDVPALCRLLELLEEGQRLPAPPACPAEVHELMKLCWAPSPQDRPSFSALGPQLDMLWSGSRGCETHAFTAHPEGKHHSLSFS

A short description of series [19]: Oral bioavailability in rat at […]. It is filed as ADME, organism-based. To be noted: in vivo.
A short description of series [20]: Half life in rat at […], po or 0.06 mg/kg, iv. Type of series: ADME, organism-based. To be noted: in vivo.
Series [21] in a line: Clearance in rat at […], po or 0.06 mg/kg, iv. Type of series: ADME, organism-based. The settings on record: in vivo.
Series [22] can be described thus: Protein binding in rat plasma assessed as unbound fraction. Type of series: ADME, cell-free.
The target of series [23] is Cytochrome P450 2C9 (Homo sapiens, UniProt P11712). Kind of series: Inhibition of CYP2C9 (unknown origin) up to 25 uM. Type of series: ADME.

≈ marks a conversion by molar mass, not a printed value.

Non-receptor tyrosine-protein kinase TYK2, sequence (P29597 whole entry): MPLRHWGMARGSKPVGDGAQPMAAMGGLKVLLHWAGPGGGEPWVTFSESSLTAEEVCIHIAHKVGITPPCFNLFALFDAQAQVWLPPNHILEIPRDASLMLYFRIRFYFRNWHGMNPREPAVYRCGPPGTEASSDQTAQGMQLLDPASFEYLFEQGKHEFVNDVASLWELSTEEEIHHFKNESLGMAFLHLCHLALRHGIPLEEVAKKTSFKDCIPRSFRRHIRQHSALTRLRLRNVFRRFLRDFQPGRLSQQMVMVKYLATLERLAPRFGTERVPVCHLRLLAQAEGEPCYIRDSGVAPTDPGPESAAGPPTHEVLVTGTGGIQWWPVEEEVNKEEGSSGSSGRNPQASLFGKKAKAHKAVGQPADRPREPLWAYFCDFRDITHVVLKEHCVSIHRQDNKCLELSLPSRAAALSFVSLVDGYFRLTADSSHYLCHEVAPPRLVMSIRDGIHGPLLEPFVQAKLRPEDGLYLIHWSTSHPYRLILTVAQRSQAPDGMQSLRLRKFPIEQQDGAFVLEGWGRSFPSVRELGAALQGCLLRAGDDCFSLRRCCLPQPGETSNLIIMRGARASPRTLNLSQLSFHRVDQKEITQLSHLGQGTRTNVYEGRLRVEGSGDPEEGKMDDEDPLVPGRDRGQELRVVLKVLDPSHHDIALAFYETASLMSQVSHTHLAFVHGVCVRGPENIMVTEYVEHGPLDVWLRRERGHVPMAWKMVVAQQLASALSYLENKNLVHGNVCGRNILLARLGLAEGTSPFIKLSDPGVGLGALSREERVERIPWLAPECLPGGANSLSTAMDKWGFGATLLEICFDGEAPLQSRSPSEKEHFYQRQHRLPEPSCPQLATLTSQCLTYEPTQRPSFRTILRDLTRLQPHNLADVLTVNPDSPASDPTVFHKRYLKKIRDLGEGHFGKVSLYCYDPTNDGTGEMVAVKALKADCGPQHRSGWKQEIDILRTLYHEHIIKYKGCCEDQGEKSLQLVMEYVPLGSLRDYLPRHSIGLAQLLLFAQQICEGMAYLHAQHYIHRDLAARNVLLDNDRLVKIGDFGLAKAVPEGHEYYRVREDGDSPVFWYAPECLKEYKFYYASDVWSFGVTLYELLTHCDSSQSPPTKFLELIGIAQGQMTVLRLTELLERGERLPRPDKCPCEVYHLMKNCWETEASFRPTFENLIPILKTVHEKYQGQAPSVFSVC
Voltage-gated inwardly rectifying potassium channel KCNH2, sequence (Q12809 whole entry): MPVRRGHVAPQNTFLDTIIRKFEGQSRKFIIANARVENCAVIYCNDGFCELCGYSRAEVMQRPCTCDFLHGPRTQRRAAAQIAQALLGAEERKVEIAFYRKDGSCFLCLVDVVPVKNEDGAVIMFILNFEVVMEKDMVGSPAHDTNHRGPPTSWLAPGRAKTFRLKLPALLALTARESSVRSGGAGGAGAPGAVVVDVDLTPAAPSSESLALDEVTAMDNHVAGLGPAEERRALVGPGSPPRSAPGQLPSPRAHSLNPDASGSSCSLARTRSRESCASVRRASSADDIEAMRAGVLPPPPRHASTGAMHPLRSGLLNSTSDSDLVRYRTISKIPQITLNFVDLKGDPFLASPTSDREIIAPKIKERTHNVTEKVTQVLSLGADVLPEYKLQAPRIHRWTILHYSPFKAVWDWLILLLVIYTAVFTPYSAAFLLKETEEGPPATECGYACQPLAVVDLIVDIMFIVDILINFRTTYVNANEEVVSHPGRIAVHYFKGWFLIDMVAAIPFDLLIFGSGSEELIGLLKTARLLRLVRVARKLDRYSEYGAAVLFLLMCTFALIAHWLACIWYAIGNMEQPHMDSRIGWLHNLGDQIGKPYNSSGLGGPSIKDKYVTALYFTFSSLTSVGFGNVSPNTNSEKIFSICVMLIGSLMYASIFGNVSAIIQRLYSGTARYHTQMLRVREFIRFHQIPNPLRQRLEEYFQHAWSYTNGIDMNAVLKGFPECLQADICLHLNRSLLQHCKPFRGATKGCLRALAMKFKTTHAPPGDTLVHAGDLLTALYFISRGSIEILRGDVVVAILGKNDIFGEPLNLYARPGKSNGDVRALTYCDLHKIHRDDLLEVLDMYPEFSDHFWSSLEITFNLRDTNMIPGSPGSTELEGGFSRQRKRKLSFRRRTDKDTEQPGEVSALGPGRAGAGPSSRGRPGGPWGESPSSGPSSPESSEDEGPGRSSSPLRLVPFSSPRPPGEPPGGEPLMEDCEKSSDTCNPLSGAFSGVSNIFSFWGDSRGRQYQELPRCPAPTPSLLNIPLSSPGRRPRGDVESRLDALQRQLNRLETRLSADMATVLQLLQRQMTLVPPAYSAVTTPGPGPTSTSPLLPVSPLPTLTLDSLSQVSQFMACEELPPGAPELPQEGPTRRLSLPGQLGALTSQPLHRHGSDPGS
Cytochrome P450 3A4, sequence (P08684 whole entry): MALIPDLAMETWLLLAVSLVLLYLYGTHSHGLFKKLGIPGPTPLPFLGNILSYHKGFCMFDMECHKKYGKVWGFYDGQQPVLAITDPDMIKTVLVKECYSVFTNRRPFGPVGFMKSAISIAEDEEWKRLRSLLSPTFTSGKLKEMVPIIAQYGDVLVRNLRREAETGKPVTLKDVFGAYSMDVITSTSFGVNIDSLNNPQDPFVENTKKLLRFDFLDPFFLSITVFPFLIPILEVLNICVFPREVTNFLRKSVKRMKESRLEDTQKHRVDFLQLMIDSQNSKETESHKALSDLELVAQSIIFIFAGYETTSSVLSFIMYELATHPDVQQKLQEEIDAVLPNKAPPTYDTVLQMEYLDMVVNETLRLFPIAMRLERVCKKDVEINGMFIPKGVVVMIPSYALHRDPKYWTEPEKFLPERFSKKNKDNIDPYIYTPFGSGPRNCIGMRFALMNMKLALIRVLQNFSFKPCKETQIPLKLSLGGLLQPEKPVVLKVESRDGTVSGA

For `Cc1[nH]nc2[nH]c(=O)cc([C@H]3C[C@H]4C[C@@H]3C[C@@H]4CC#N)c12`, the Activity result in series [1] is “Not Active”. The “inhibition (INH)” value in series [2], in series [4], in series [9], in [10] and in [23] was “Not Active” throughout. The CLint scaled in [3] was below 15 mL/min/kg; in [5], 25 mL/min/kg; in series [16], below 8 mL/min/kg. In addition, the IC50 in [6] was 20 nM; in [13], 12 nM; in series [17] it was 2.8 µM; in series [18] it was 88 nM. Further, in series [7], the Fa was 41%. The compound also had a logD in series [8] of 1.5. Moreover, in [11], the Vd was 1.2 L/kg. In [12], the solubility was determined as 89 µM (≈ 25.1 µg/mL). Also, in series [14], the inhibition is 32%. For the same compound, in series [15], the apparent permeability (Papp) is 0.7 ×10⁻⁶ cm/s. Further, the bioavailability in [19] amounted to 14%. Also, the half-life in series [20] was 18 min. Moreover, the clearance in series [21] is 53 mL/min/kg. The fraction unbound in series [22] stood at 0.22.

Regarding `Cc1[nH]nc2[nH]c(=O)cc([C@@H]3C[C@@H]4C[C@H]3C[C@@H]4CC#N)c12`, the IC50 in series [6] was 220 nM; in series [13], 150 nM; in series [17], 24 µM; in series [18], 220 nM. Also, the pH-dependent lipophilicity (logD) in series [8] was 1.5. In series [12], the solubility was above 92 µM. The CLint scaled in series [16] was below 8 mL/min/kg.

In general, CLint scaled refers to a measure of how fast metabolising enzymes remove a compound, apart from limits set by blood flow. Higher therefore signals faster metabolism. As a reminder, the IC50 is the concentration that gives 50% inhibition. Low values mean greater potency in that assay, high ones weaker potency in that assay. One may read the logD as the decadic logarithm of the distribution of all forms, ionised or not, between an organic phase and buffer at a given pH. A lower logD goes with a more hydrophilic compound. As a reminder, the solubility is how much of the substance goes into solution per volume. Broadly, the inhibition is the change of the read-out against control, counted positive when it falls. The Papp is the rate of passage across a membrane or cell layer, normalised by area and donor concentration. The term bioavailability denotes dose-corrected exposure relative to a reference, in per cent. Higher therefore signals good availability. Broadly, the half-life is the time needed for the level to fall by half in the phase considered. For orientation: fraction unbound means the share of the substance not bound to proteins or other matrix.

Values taken from ChEMBL document CHEMBL4610114, “Fragment-Based Discovery of Pyrazolopyridones as JAK1 Inhibitors with Excellent Subtype Selectivity” (J Med Chem, 2020).
